Data set [1] deals with LPS-stimulated NO production in RAW 264.7 cells. Kind of data set: Inhibition of LPS-induced NO production (nitrite accumulation, Griess reaction) in RAW 264.7 cells. Format: cell-based. As to conditions: for inhibition at 10 µM: compound 10 μM, read-out: Percent Inhibition of NO Production at 10 μM. The method, then:
Treatment of Raw 264.7 cells with LPS (0.1 μg/mL) for 24 h induced NO production which were assessed by measuring the accumulation of nitrite, a stable metabolite of NO, in the media based on Griess reaction. […] However, compound 2a was also highly cytotoxic, in which the survival rate of RAW 264.7 cells was only 9% at a drug concentration of 10 μM. […] The position of substitution play an important role in which substitution at para-position is usually more favorable than its ortho- or meta- counterpart in the inhibitory activity on the LPS-induced NO production. […] Various substituted groups have been introduced on the para-position of the phenyl ring.
Raw 264.7 cells, purchased from Bioresource Collection and Research Center, Taiwan, were cultured in DMEM, supplemented with 5% fetal bovine serum, 100 units/mL of penicillin, 100 μg/mL of streptomycin, 2 mM L-glutamine, and 1 mM non-essential amino acids in a 10-cm plate at a density of 1 × 10^6 cells/mL, at 37 °C in a humidified atmosphere containing 5% CO2.
Nitrite was measured by adding 100 μL of the Griess reagent (1% sulfanilamide and 0.1% N-(1-naphthyl)ethylenediamine dihydrochloride in 5% phosphoric acid) to 100 μL of medium for 5 min. The optical density at 550 nm (OD550) was measured with a microplate reader. Concentrations were calculated by comparison with the OD550 of a standard solution of sodium nitrite prepared in culture medium.
For orientation: The Griess reaction detects nitrite, a stable product of nitric oxide.

The test system of a further data set is RAW 264.7 cells. Kind of data set: Cell viability (XTT method) of RAW 264.7 cells. Format: cell-based. The settings on record: compound 10 μM, 24 h, means ± S.D. The method, then:
To evaluate whether the suppressive effect of compounds on NO production is related to cell viability, Raw 264.7 cells were treated with LPS for 24 h, and washed with 500 μL of phosphate buffer solution (PBS) before resuspended in 1 mL of culture medium. Cell viability tests were run in parallel with NO production assays with an initial cell density of 5 × 10^3 cells/well in the presence or absence of test compounds at 10 μM or 0.1% DMSO as control.

Data set [2] in a line: NO-scavenging activity (sodium nitroprusside, nitrite by Griess reaction). As to conditions: SNP 2.5 mM, compound 10 μM, light, room temperature, 60 min. The method, then: NO-scavenging effects of pyrazolo[4,3-c]quinolines 2i and 2m were measured according to the reported method. Sodium nitroprusside (SNP) (2.5 mM) was incubated alone or in combination with tested compound (10 μM) or 1400W(10 μM) in light at room temperature for 60 min.
To understand the inhibitory effects of compounds 2i and 2m on NO production, sodium nitroprusside (SNP) was freshly prepared at […] in PBS was incubated alone or in combination with 10 µM of the different compounds. SNP is an inorganic complex where NO is found as NO^+ and light irradiation is necessary for the release of NO. Therefore, incubation mixtures were incubated in light at room temperature, and nitrite levels were determined after 60 min by Griess reaction.
Figure 1 NO-scavenging effects of 1400W, compounds 2i and 2m. SNP solution (2.5 mM) in PBS was incubated alone or with tested compound (10 μM) or 1400W (10 μM) in the presence of light at room temperature for 60 min.

Setting [3] is: Mus musculus, RAW264.7, 24 h, RAW 264.7 cells, LPS 0.1 μg/mL 24 h, means ± S.D., read-out: IC50 (inhibition of LPS-induced NO production).
Setting [4] is: Mus musculus, RAW264.7, training dataset, negative logarithm of IC50 values, read-out: Observed pIC50 (converted).
Where [5] appears, read: Mus musculus, RAW264.7, RAW 264.7 cells, LPS 0.1 μg/mL 24 h, means ± S.D.
The mark [6] stands for this setting: Mus musculus, RAW264.7, test dataset, negative logarithm of IC50 values, read-out: Observed pIC50 (converted).
[7] abbreviates: Mus musculus, RAW264.7, RAW 264.7 cells, LPS 0.1 μg/mL 24 h, means ± S.D., read-out: IC50 (inhibition of LPS-induced NO production).

Several values for one entry are separate records, joined by “and”; a condition that tells them apart may be missing. Equal entries are not always repeated. Where two headings read alike, the source gives them in different places.

What is called inhibition is the drop in the measured response relative to a control, in per cent. As for `Nc1n[nH]c2c1c(Nc1ccccc1)nc1ccccc12` [Compound 2a, 3-Amino-4-phenylamino-1H-pyrazolo[4,3-c]quinoline], the IC50 in data set [1] (setting [3]) was 390 ± 80 nM; in data set [1] (setting [4]) it was 390 nM. Further, the inhibition at 10 µM in data set [1] (setting [5]) worked out at 81.7 ± 0.99%. Moreover, in the data set with RAW 264.7 cells, the “Cell Survival Rate at 10 μM” value is 9% and 9.09 ± 0.24%.
For `Nc1n[nH]c2c1c(Nc1ccccc1O)nc1ccccc12` [Compound 2b], the IC50 in data set [1] (setting [3]) is 420 ± 110 nM; in data set [1] (setting [4]), 420 nM. Also, the inhibition at 10 µM in data set [1] (setting [5]) was determined as 103 ± 6.55%. The “Cell Survival Rate at 10 μM” value in the data set on RAW 264.7 cells is given as 53.48 ± 1.53%.
What is called melting point is the temperature, or range, at which the solid turns liquid. `COc1ccccc1Nc1nc2ccccc2c2[nH]nc(N)c12` [Compound 2c, 3-Amino-4-(2-methoxyphenylamino)-1H-pyrazolo[4,3-c]quinoline] came in with a melting point of 210 to 211 °C. The IC50 in data set [1] (setting [6]) was 490 nM. Moreover, the inhibition at 10 µM in data set [1] (setting [5]) was determined as 82.2 ± 6.49%. The IC50 in data set [1] (setting [7]) was found to be 490 ± 140 nM. In addition, in the data set on RAW 264.7 cells, the “Cell Survival Rate at 10 μM” value was determined as 47.31 ± 1.67%.
Turning to `Nc1n[nH]c2c1c(Nc1cccc(O)c1)nc1ccccc12` [Compound 2d], the IC50 in data set [1] (setting [3]) was 770 ± 230 nM; in data set [1] (setting [6]) it was 770 nM. Moreover, the inhibition at 10 µM in data set [1] (setting [5]) amounted to 93.5 ± 7.57%. Further, in the data set on RAW 264.7 cells, the “Cell Survival Rate at 10 μM” value was 81.70 ± 0.09%.
The compound `COc1cccc(Nc2nc3ccccc3c3[nH]nc(N)c23)c1` [Compound 2e, 3-Amino-4-(3-methoxyphenylamino)-1H-pyrazolo[4,3-c]quinoline] had a melting point of 184 to 186 °C. Also, the IC50 in data set [1] (setting [3]) stood at 770 nM. Further, in data set [1] (setting [6]), the IC50 is 720 nM. The inhibition at 10 µM in data set [1] (setting [5]) was 101 ± 1.31%. Moreover, the IC50 in data set [1] (RAW 264.7 cells, LPS 0.1 μg/mL 24 h, means ± S.D., read-out: IC50 (inhibition of LPS-induced NO production)) was determined as 720 ± 180 nM. Moreover, the “Cell Survival Rate at 10 μM” value with RAW 264.7 cells was determined as 94.32 ± 0.49%.
`CC(=O)c1cccc(Nc2nc3ccccc3c3[nH]nc(N)c23)c1` [Compound 2f, 3-Amino-4-(3-acetylphenylamino)-1H-pyrazolo[4,3-c]quinoline]: the melting point was above 380 °C. In addition, the IC50 in data set [1] (setting [3]) stood at 290 ± 60 nM. For the same compound, the IC50 in data set [1] (setting [6]) is 290 nM. Also, in data set [1] (setting [5]), the inhibition at 10 µM was 99.1 ± 2.16%. In addition, the “Cell Survival Rate at 10 μM” value in the data set with RAW 264.7 cells came out at 94.37 ± 0.36%.
For `Nc1n[nH]c2c1c(Nc1ccc(Cl)cc1)nc1ccccc12` [Compound 2g], the IC50 in data set [1] (setting [3]) is 320 ± 50 nM; in data set [1] (setting [4]) it was 320 nM. For the same compound, the inhibition at 10 µM in data set [1] (setting [5]) stood at 104 ± 6.71%. Besides, the “Cell Survival Rate at 10 μM” value in the data set with RAW 264.7 cells came out at 81.61 ± 0.14%.
Turning to `Nc1n[nH]c2c1c(Nc1ccc(F)cc1)nc1ccccc12` [Compound 2h], the IC50 in data set [1] (setting [3]) is 410 ± 70 nM; in data set [1] (setting [6]), 410 nM. The inhibition at 10 µM in data set [1] (setting [5]) came to 94.8 ± 9.47%. Also, the “Cell Survival Rate at 10 μM” value in the data set on RAW 264.7 cells was 89.99 ± 0.02%.
Regarding `Nc1ccc(Nc2nc3ccccc3c3[nH]nc(N)c23)cc1` [Compound 2j], the IC50 was 920 ± 50 nM in data set [1] (setting [3]) and 920 nM in data set [1] (setting [4]). Also, the inhibition at 10 µM in data set [1] (setting [5]) was determined as 95.1 ± 3.75%. Further, the “Cell Survival Rate at 10 μM” value in the data set on RAW 264.7 cells was found to be 90.26 ± 0.05%.
Regarding `COc1ccc(Nc2nc3ccccc3c3[nH]nc(N)c23)cc1` [Compound 2k], the IC50 in data set [1] (setting [3]) was 480 ± 140 nM; in data set [1] (setting [6]), 480 nM. In addition, the inhibition at 10 µM in data set [1] (setting [5]) worked out at 90.8 ± 11.9%. Also, the “Cell Survival Rate at 10 μM” value in the data set with RAW 264.7 cells turned out to be 90.57 ± 0.03%.
Take `CC(=O)c1ccc(Nc2nc3ccccc3c3[nH]nc(N)c23)cc1` [Compound 2l]: the IC50 is 290 ± 80 nM in data set [1] (setting [3]) and 290 nM in data set [1] (setting [4]). For the same compound, in data set [1] (setting [5]), the inhibition at 10 µM was 102 ± 6.49%. For the same compound, in the data set with RAW 264.7 cells, the “Cell Survival Rate at 10 μM” value is recorded as 87.80 ± 0.11%.
For `Nc1n[nH]c2c1c(Nc1ccc(C(F)(F)F)cc1)nc1ccccc12` [Compound 2n], in that order: 360 ± 90 nM, 360 nM, 107 ± 2.48% and 69.14 ± 0.62%.
As for `Cc1ccc(Nc2nc3ccccc3c3[nH]nc(N)c23)cc1` [Compound 2o], the IC50 in data set [1] (setting [3]) was 470 ± 70 nM; in data set [1] (setting [4]) it was 470 nM. Also, the inhibition at 10 µM in data set [1] (setting [5]) was 100 ± 3.02%. Besides, the “Cell Survival Rate at 10 μM” value in the data set with RAW 264.7 cells stood at 84.53 ± 0.04%.
For `Nc1n[nH]c2c1c(Nc1ccc([N+](=O)[O-])cc1)nc1ccccc12` [Compound 2p], in that order: 400 ± 90 nM, 400 nM, 89.11 ± 0.86% and 90.86 ± 0.32%.
For the compound `CSc1ccc(Nc2nc3ccccc3c3[nH]nc(N)c23)cc1` [Compound 2q, 3-Amino-4-(4-methylthiophenylamino)-1H-pyrazolo[4,3-c]quinoline], the melting point was in the range of 269 to 271 °C. The IC50 in data set [1] (setting [3]) was found to be 360 ± 80 nM. Moreover, the IC50 in data set [1] (setting [4]) was 360 nM. The inhibition at 10 µM in data set [1] (setting [5]) stood at 102 ± 7.01%. Also, the “Cell Survival Rate at 10 μM” value in the data set on RAW 264.7 cells amounted to 89.62 ± 0.05%.
For `COc1cc(Nc2nc3ccccc3c3[nH]nc(N)c23)cc(OC)c1OC` [Compound 2r, 3-Amino-4-(3,4,5-trimethoxyphenylamino)-1H-pyrazolo[4,3-c]quinoline], the melting point was in the range of 161 to 162 °C. In data set [1] (setting [3]), the IC50 is 350 ± 60 nM. In addition, the IC50 in data set [1] (setting [4]) is 350 nM. Also, the inhibition at 10 µM in data set [1] (setting [5]) amounted to 107 ± 2.58%. Further, the “Cell Survival Rate at 10 μM” value with RAW 264.7 cells is reported as 85.24 ± 0.04%.
On to `CC(=N)NCc1cccc(CN)c1.Cl.Cl` [Compound 1400w, N-[[3-(Aminomethyl)-phenyl]methyl]-ethanimidamide dihydrochloride, reference compound], for which, in data set [1] (setting [5]), the inhibition at 10 µM amounted to 102 ± 2.16%. Besides, the IC50 in data set [1] (setting [7]) is 200 ± 20 nM. Moreover, the “Cell Survival Rate at 10 μM” value in the data set on RAW 264.7 cells worked out at 99.54 ± 2.51%. Besides, in data set [2], the “NO-scavenging effect (levels of nitrite from SNP)” value was “did not affect the levels of nitrite”.

These data come from article PMC6102577, “Discovery of Pyrazolo[4,3-c]quinolines Derivatives as Potential Anti-Inflammatory Agents through Inhibiting of NO Production” (Molecules : A Journal of Synthetic Chemistry and Natural …, 2018).
